From PubChem BioAssay (NCI) come the findings set out here.

Each structure is given as a SMILES string.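 How tested: cells in 96-well plates exposed to compound for 48 hours at five concentrations. GI50 = concentration required for 50% inhibition of growth. The concentration for full growth arrest is given as TGI.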

Among the test systems are HT29 colon; KM12 colon; 786-0 renal; NCI-H522 lung; OVCAR-3 ovarian; A549 NSCLC; UACC-257 melanoma; OVCAR-5 ovarian; SF-539 CNS; MDA-MB-435.
Test in all cases: inhibition of tumour cell growth, NCI panel, 48 h

`CCC(c1c[nH]c2ccc(Br)cc12)c1c[nH]c2ccc(Br)cc12`: the TGI with HT29 colon came out at 10.4 µM; with KM12 colon it was 4.22 µM; in the experiment on 786-0 renal it was 11.2 µM; in the experiment with NCI-H522 lung it was 18.1 µM; with OVCAR-3 ovarian, 14.2 µM; in the experiment with A549 NSCLC, 15 µM. For the same compound, the TGI in the experiment with UACC-257 melanoma was found to be 23.9 µM; in the experiment on OVCAR-5 ovarian, 16.6 µM; with SF-539 CNS, 28.6 µM; in the experiment on MDA-MB-435, 11 µM.
In the case of `O[C@H]1[C@H](O)[C@@H](O)[C@@]2(O)C[C@@H](O)[C@@H]1N2`, the TGI with HT29 colon, with KM12 colon, in the experiment with 786-0 renal, in the experiment on NCI-H522 lung, in the experiment on OVCAR-3 ovarian and in the experiment on A549 NSCLC was over 100 µM each time. For the same compound, the TGI in the experiment with UACC-257 melanoma, in the experiment with SF-539 CNS and in the experiment with MDA-MB-435 was over 100 µM in each case.
As for `COc1ccc(/C=C2\CN(C)C/C(=C\c3ccc(OC)c(OC)c3OC)C2=O)c(OC)c1OC`, the TGI turned out to be 0.806 µM in the experiment on 786-0 renal; 0.473 µM in the experiment on NCI-H522 lung; 0.335 µM in the experiment on OVCAR-3 ovarian; 1.07 µM with A549 NSCLC; 0.571 µM in the experiment with UACC-257 melanoma; 0.656 µM in the experiment with OVCAR-5 ovarian. Moreover, the TGI with SF-539 CNS worked out at 0.311 µM; with MDA-MB-435 it was 0.0541 µM.
Turning to `Nc1nc(Cl)c(N)c(NCC2(CO)CC(CCCc3ccccc3)C2)n1` (stereo not given), the TGI with HT29 colon is over 22.8 µM; with KM12 colon, over 100 µM; in the experiment on 786-0 renal it was over 51.7 µM; in the experiment on NCI-H522 lung, 19.6 µM; with OVCAR-3 ovarian, over 67.2 µM; with A549 NSCLC, over 100 µM. Further, the TGI with UACC-257 melanoma was over 100 µM; in the experiment with OVCAR-5 ovarian, over 100 µM; with SF-539 CNS, over 64.2 µM; in the experiment on MDA-MB-435, over 100 µM.
With `CCN(c1cccc(NC(=S)Nc2ccccc2N(CC)c2cc(-c3ccccc3)no2)c1)c1cc(-c2ccccc2)no1`, the TGI in the experiment with HT29 colon, in the experiment with KM12 colon, in the experiment on 786-0 renal, in the experiment with NCI-H522 lung, in the experiment with OVCAR-3 ovarian and in the experiment with A549 NSCLC was over 100 µM throughout. The TGI with UACC-257 melanoma, in the experiment on OVCAR-5 ovarian, in the experiment on SF-539 CNS and in the experiment with MDA-MB-435 was over 100 µM throughout.
As for `COc1nc(N)c(N=CC(OC(C)=O)C(OC(C)=O)C(COC(C)=O)OC(C)=O)c(=O)n1C` (stereo not given), the TGI in the experiment on HT29 colon, with KM12 colon, with 786-0 renal, with NCI-H522 lung, with OVCAR-3 ovarian and in the experiment with A549 NSCLC was over 100 µM each time. Further, the TGI with UACC-257 melanoma, with OVCAR-5 ovarian, in the experiment on SF-539 CNS and in the experiment on MDA-MB-435 was over 100 µM each time.
In the case of `CSCCC(NC(=O)Cc1ccc(C(=O)c2ccccc2)cc1)C(=O)O` (stereo not given), the TGI in the experiment with HT29 colon, in the experiment with KM12 colon, in the experiment on 786-0 renal, in the experiment with NCI-H522 lung, in the experiment on OVCAR-3 ovarian and with A549 NSCLC was over 100 µM throughout. In addition, the TGI with UACC-257 melanoma, in the experiment with OVCAR-5 ovarian, with SF-539 CNS and in the experiment on MDA-MB-435 was over 100 µM throughout.
On to `c1ccc(CSCCc2ccncc2)cc1`, for which the TGI in the experiment on HT29 colon, with KM12 colon, in the experiment with 786-0 renal, with NCI-H522 lung, in the experiment with OVCAR-3 ovarian and with A549 NSCLC was over 100 µM each time. The TGI with UACC-257 melanoma, with OVCAR-5 ovarian, in the experiment on SF-539 CNS and with MDA-MB-435 was over 100 µM throughout.
Take `O=c1onc2c3ccccc3ncn12`: the TGI with HT29 colon, with KM12 colon, in the experiment with 786-0 renal, in the experiment on NCI-H522 lung, in the experiment on OVCAR-3 ovarian and in the experiment with A549 NSCLC was over 100 µM each time. The TGI with UACC-257 melanoma, in the experiment with OVCAR-5 ovarian, in the experiment on SF-539 CNS and in the experiment with MDA-MB-435 was over 100 µM in each case.
Regarding `CCOc1cc(NC(C)=O)ccc1C(=O)NN1C(=O)C(Cl)C1c1ccco1` (stereo not given), the TGI in the experiment on HT29 colon was 38.8 µM; in the experiment with KM12 colon it was 33.6 µM; with 786-0 renal it was 30.8 µM; in the experiment with NCI-H522 lung it was 25.5 µM; in the experiment with OVCAR-3 ovarian, 32 µM; in the experiment with A549 NSCLC, 38.8 µM. The TGI came to 34.2 µM with UACC-257 melanoma, 36.4 µM in the experiment with OVCAR-5 ovarian, 38 µM in the experiment on SF-539 CNS and 32.3 µM with MDA-MB-435.
Consider `COc1ccc(N=C2C(=Nc3ccc(OC)cc3)N(c3ccccc3)C(=S)N2N=C=C2Sc3ccccc3N2C)cc1`, for which the TGI in the experiment on HT29 colon, with KM12 colon, with 786-0 renal, with NCI-H522 lung, in the experiment with OVCAR-3 ovarian and in the experiment on A549 NSCLC was over 100 µM each time. Further, the TGI in the experiment on UACC-257 melanoma, with OVCAR-5 ovarian, in the experiment with SF-539 CNS and in the experiment with MDA-MB-435 was over 100 µM in each case.
As to `CCOP(=O)(OCC)C(C)(CC)NC` (stereo not given), the TGI in the experiment on HT29 colon, in the experiment on KM12 colon, in the experiment on 786-0 renal, with NCI-H522 lung, with OVCAR-3 ovarian and in the experiment with A549 NSCLC was over 100 µM throughout. In addition, the TGI in the experiment on UACC-257 melanoma, in the experiment with OVCAR-5 ovarian, in the experiment with SF-539 CNS and in the experiment on MDA-MB-435 was over 100 µM throughout.
As for `CC1OC(O[C@H]2/C=C/C=C/C=C/C=C/C=C/C=C/C=C/[C@H](C)[C@@H](O)[C@@H](C)[C@H](C)OC(=O)CC(O)CC(O)CCC(O)C(O)CC(O)C[C@]3(O)C[C@H](O)C(C(=O)O)C(C2)O3)C(O)[C@H](N)C1O` (stereo not given in full), the GI50 was 4.3 µM in the experiment on HT29 colon; 6.16 µM with KM12 colon; 2.58 µM in the experiment on NCI-H522 lung; 2.39 µM with OVCAR-3 ovarian; 1.67 µM in the experiment on A549 NSCLC; 1.75 µM in the experiment on UACC-257 melanoma. The GI50 was 3.88 µM in the experiment on OVCAR-5 ovarian, 2.92 µM with SF-539 CNS and 2.01 µM with MDA-MB-435. In addition, the TGI in the experiment on HT29 colon was found to be 14.7 µM; in the experiment on KM12 colon it was 20.2 µM; in the experiment on NCI-H522 lung it was 6.02 µM; in the experiment on OVCAR-3 ovarian it was 5.35 µM; in the experiment with A549 NSCLC, 3.11 µM; with UACC-257 melanoma, 3.4 µM. The TGI in the experiment with OVCAR-5 ovarian came out at 16.8 µM; in the experiment with SF-539 CNS it was 11.6 µM; in the experiment with MDA-MB-435, 3.69 µM.
